Series [1] concerns neuromuscular junction. The series can be described thus: Mouse inclined screen grip strength test. In kind it is in vivo. The conditions noted are these: mice on 45° inclined screen; dose required to inhibit grip strength. As for the experimental part: The first step, in mice, establishes a preliminary estimate of the potency and efficacy of the compounds. The animals were placed on a screen, inclined 45° to the horizontal. Effective doses caused the mice to lose their grip and slide down the inclined screen. […]

The test system of series [2] is neuromuscular junction. In kind it is in vivo. The following applies: for Neuromuscular Junction Blocking Activity (ED90), Rabbit: Table I, rabbit paw twitch; for ED90 (potency: dose required to depress twitch tension to 10% of control): Table II, anesthetized rabbits, marginal ear vein; for Duration (time from injection until train-of-four recovered to 75%) / HR (% change from pre-drug heart rate) / onset T85% (time from injection until 85% of maximal drug effect) / BP (% change of pre-drug blood pressure): rabbit. From the text:
In a large series of similar telaxants, the rabbit dose is typically 125% of that in mice. The mechanism of action was also confirmed in this test by observing train-of-four and tetanus fade, post-tetanic potentiation of single twitches and administration of the anticholinesterase drug neostig- mine which reverses the relaxation. Reversibility, rapid onset and short duration are important factors to the anesthesiologist.
The following is a brief description of the methodologies used in rabbits to describe neuromuscular blocking activity of the subject compounds. A more detailed description of these methods is presented in "Microcomputer Use in Measuring Onset, Duration, and Recovery from Non-Depolarizing Skeletal Muscle Relaxants in Rabbits", P. D. Thut et al, Drug development Research 5:182, 1985.
Male New Zealand white rabbits weighing between 2.5 and 3.4 kg were anesthetized with pentobarbital (30 mg/kg) and placed on their backs upon a 40° C. water filled temperature regulation pad. Following tracheostomy, the lungs were mechanically ventilated at 28 breaths per minute with room air, using an open system delivering 200 mi/stroke. This ventilation maintained pCO2 at 38 mmHG and pO2 at 85 mmHg. Direct arterial blood pressure was measured from the right common carotid artery. The test compounds were administered through a canula placed in the marginal ear vein. Each foreleg was taped to a cushioned plate held in a femur clamp attached to the spinal board rack. The left centeral digit of each paw was connected to a force displacement transducer for measurement of muscle tension. Nerve stimulation was provided by pairs of pin electrodes placed on both sides of the ulnar nerve at the elbow of both forearms. The right ulnar nerve was stimulated at […] for 0.5 msec duration. The left ulnar nerve was similarly stimulated, every 15 seconds, with addition of interspersed trains-of-four and tetanizing stimuli. The parameters reported in Table II are: potency (ED90), which is the dose required to depress twitch tension to 10% of its control value; onset (T85%), which is the time from injection unit 85% of the maximal drug effect is achieved, duration, which is the time from injection until the train-of-four has recovered to 75%, blood pressure (BP), which is the percentage change of pre-drug blood pressure; and heart rate (HR), which is the percentage change from pre-drug heart rate.

[3] abbreviates: equi-efficacious dose, arterial blood pressure.

Where two headings read alike, the source gives them in different places.

Take `C[N+](C)(C)[C@@H](Cc1ccccc1)C(=O)NCCCCCCCCCCNC(=O)[C@H](Cc1ccccc1)[N+](C)(C)C` [Compound C, bis-(N,N,N-trimethyl-L-phenylalanyl) -decane-1,10-diamide]: the “Neuromuscular Junction Blocking Activity (ED90), Mouse” value in series [1] was 1.259 mg/kg. In series [2], the “Neuromuscular Junction Blocking Activity (ED90), Rabbit” value is given as 4.408 mg/kg and the “ED90 (potency: dose required to depress twitch tension to 10% of control)” value is on record as 4.41 mg/kg. Further, in series [2] (equi-efficacious dose), the “Duration (time from injection until train-of-four recovered to 75%)” value amounted to 17.4 min, the “HR (% change from pre-drug heart rate)” value is on record as -0.80 % change and the “onset T85% (time from injection until 85% of maximal drug effect)” value (“onset T85%” for short) was determined as 37.60 s. In addition, the “BP (% change of pre-drug blood pressure)” value in series [2] (setting [3]) is -40.30 % change.

In the case of `C[N+](C)(C)C(Cc1ccccc1)C(=O)NCCCCCCNC(=O)C(Cc1ccccc1)[N+](C)(C)C.[I-].[I-]` (stereo not drawn) [Compound A, Me3 N^+ -Phe-NH-(CH2)6 -NH-Phe-N^+ Me3 2I^-], the “Neuromuscular Junction Blocking Activity (ED90), Mouse” value in series [1] worked out at 7.940 mg/kg.

With `CC(C)CC(NC(=O)C(Cc1ccccc1)NC(=O)C(CC(C)C)[N+](C)(C)C)C(=O)NCCCCC[N+](C)(C)C.O=C([O-])C(F)(F)F.O=C([O-])C(F)(F)F` (stereo not drawn) [Compound B, Me3 N^+ -Leu-Phe-Leu-NH-(CH2)5 -N^+ Me3 2(CF3 CO2)^=], the “Neuromuscular Junction Blocking Activity (ED90), Mouse” value in series [1] was determined as 3.981 mg/kg.

Regarding `CC(C)CC(NC(=O)C(Cc1ccccc1)NC(=O)C(CC(C)C)[N+](C)(C)C)C(=O)NCCCCCCC[N+](C)(C)C` [Compound E, N,N,N-trimethyl-L-leucyl-L-phenylalanyl-L-Leucine-(7-trimethylammonium) heptylamide], the “Neuromuscular Junction Blocking Activity (ED90), Mouse” value in series [1] is 1.995 mg/kg.

With `COc1ccc(CC2c3cc(OC)c(OC)cc3CC[N+]2(C)CCC(=O)OCCCCCOC(=O)CC[N+]2(C)CCc3cc(OC)c(OC)cc3C2Cc2ccc(OC)c(OC)c2)cc1OC` (stereo not drawn) [atracurium], in series [1], the “Neuromuscular Junction Blocking Activity (ED90), Mouse” value amounted to 0.631 mg/kg. Further, in series [2], the “Neuromuscular Junction Blocking Activity (ED90), Rabbit” value was 0.050 mg/kg and the “ED90 (potency: dose required to depress twitch tension to 10% of control)” value was determined as 0.05 mg/kg. Further, in series [2] (equi-efficacious dose), the “Duration (time from injection until train-of-four recovered to 75%)” value was 14.30 min and the “onset T85%” value is 126.90 s. Besides, in series [2] (in vivo), the “BP (% change of pre-drug blood pressure)” value was -3.40 % change and the “HR (% change from pre-drug heart rate)” value is recorded as -1.00 % change.

On to `CC(=O)O[C@H]1C[C@@H]2CC[C@@H]3[C@H](CC[C@@]4(C)[C@H]3C[C@H]([N+]3(C)CCCCC3)[C@@H]4OC(C)=O)[C@@]2(C)C[C@@H]1N1CCCCC1` [vecuronium], for which the “Neuromuscular Junction Blocking Activity (ED90), Mouse” value in series [1] was 0.025 mg/kg. Besides, in series [2], the “Neuromuscular Junction Blocking Activity (ED90), Rabbit” value came out at 0.020 mg/kg and the “ED90 (potency: dose required to depress twitch tension to 10% of control)” value is reported as 0.02 mg/kg. Further, in series [2] (equi-efficacious dose), the “Duration (time from injection until train-of-four recovered to 75%)” value came to 16.80 min, the “HR (% change from pre-drug heart rate)” value was -1.90 % change and the “onset T85%” value turned out to be 97.30 s. For the same compound, the “BP (% change of pre-drug blood pressure)” value in series [2] (setting [3]) came to 1.10 % change.

In the case of `CC(C)CC(NC(=O)C(Cc1ccccc1)[N+](C)(C)C)C(=O)NCC[N+](C)(C)C.O=C([O-])C(F)(F)F.O=C([O-])C(F)(F)F` (stereo not drawn) [Compound D, Me3 N^+ -Phe-Leu-NH-(CH2)2 -N^+ Me3 2(CF3 CO2)^=], the “Neuromuscular Junction Blocking Activity (ED90), Mouse” value in series [1] was found to be 16.000 mg/kg. In series [2], the “Neuromuscular Junction Blocking Activity (ED90), Rabbit” value amounted to 31.13 mg/kg and the “ED90 (potency: dose required to depress twitch tension to 10% of control)” value was found to be 31.13 mg/kg. Also, in series [2] (equi-efficacious dose), the “Duration (time from injection until train-of-four recovered to 75%)” value amounted to 15.00 min, the “HR (% change from pre-drug heart rate)” value is reported as 4.60 % change and the “onset T85%” value came out at 36.3 s. Also, in series [2] (setting [3]), the “BP (% change of pre-drug blood pressure)” value is -28.30 % change.

Consider `CC(=O)O[C@H]1C[C@@H]2CC[C@@H]3[C@H](CC[C@@]4(C)[C@H]3C[C@H]([N+]3(C)CCCCC3)[C@@H]4OC(C)=O)[C@@]2(C)C[C@@H]1[N+]1(C)CCCCC1` [pancuronium], for which, in series [2], the “ED90 (potency: dose required to depress twitch tension to 10% of control)” value stood at 0.02 mg/kg. Also, in series [2] (equi-efficacious dose), the “Duration (time from injection until train-of-four recovered to 75%)” value turned out to be 32.50 min, the “HR (% change from pre-drug heart rate)” value is on record as 0.00 % change and the “onset T85%” value was determined as 147.50 s. The “BP (% change of pre-drug blood pressure)” value in series [2] (setting [3]) was found to be 2.70 % change.

For the origin of these results see US5190924A, “Peptide amides and amide dimers useful as muscle relaxants” (BOC Health Care, Inc., priority 1991, dated 1993).
